System: Myzus persicae
Experiment: JA or MeJA seed treatment, tomato plants challenged with aphids
Format: in vivo
Conditions: tomato cv. Carousel; seed treatment 3.0 mM MeJA; challenged 10 weeks after seed treatment; 12 days feeding
Experimental: Tomato, pepper, maize and wheat seeds were treated with 3 mM JA or 1.5 mM JA solutions or with 3 mM methyl jasmonate (MeJA) or with deionised water containing 42.8 mM ethanol (control) by full submersion of up to 40 seeds in a Petri dish of solution wrapped in foil for a period of 24 hours at 4° C. in a fridge. A temperature of 4° C. was used both to prevent degradation of the jasmonic acid solutions and to prevent germination of the seeds. The seeds were then removed from the treatment solution and washed in 1 liter of deionised water for 5 minutes to remove the JA or MeJA coating the outside of the seeds. Tomato seeds were sown in rockwool blocks and grown on peat-based compost in glass houses at 12° C.-28° C. under artificial light on a 16 hour light and 8 hour dark cycle for 48, 56 or 70 days. Tomato plants were then challenged with Tetranychus urticae (two-spotted spider mite) which were allowed to feed for 9 days, Manduca sexta (tobacco hornworm) caterpillars which were allowed to feed for 4 days or Myzus persicae (aphid), which were allowed to feed for 10 or 12 days. In each case these organisms were restricted to the plant on which they had originally been placed. Pepper plants were challenged with Myzus persicae (aphid), which were allowed to feed for 2 weeks. Maize and wheat plants were challenged with Spodoptera […] caterpillars which were allowed to feed for 2 days (maize) or 3 days (wheat). The effect of Myzus persicae on plants was determined by counting the aphid population on each plant under a dissecting microscope at ×10 magnification. Seeds of a UK commercial F1 hybrid tomato variety (cv. Carousel) were treated with 3.0 mM jasmonic acid (JA) and 42.8 mM ethanol in deionised H2O for a period of 24 hours at 4° C. in the dark. […] Aphids were allowed to feed on the plants for twelve days and the aphid population was measured at intervals over this period. […]

`CC/C=C\CC1C(=O)CCC1CC(=O)OC` (stereo not shown) [MeJA, jasmonic acid methyl ester] was tested, and the “Aphid population compared with control plants” value was “significant (p<0.05) reduction”.
